Assay [1] concerns myosin regulatory light chain. In words: Action on amount of phosphorylated myosin regulatory light chain in the cells (Test Example 1). The conditions noted are these: neutrophils of healthy volunteers, reaction with test compound at 25°C for 5 minutes, read-out: Inhibition of myosin regulatory light chain phosphorylation (IC50: µM). It counts as cell-based, human. On the procedure: The neutrophils were washed with PBS(-) and resuspended in Hanks' Balanced Salt Solution (HBSS+, Gibco) to prepare a cell suspension (8 x 10^6/ml). The cell suspension was diluted to 5 x 10^6/ml, introduced into Eppendorf tubes in a volume of 0.4 ml each, then 0.1 ml each of solutions of a test compound at various concentrations were added to the suspension and allowed to react at 25°C for 5 minutes. After the reaction, 0.1 ml of trichloroacetic acid solution was added to each reaction, the reaction mixture was gently shaken and centrifuged at 12,000 rpm (4°C, 5 minutes), and the supernatant was removed. Subsequently, 3 μl of 1 M Tris solution was added to the residue, the mixture was further mixed with 50 μl of extraction buffer (8 M urea, 0.02% 2-mercaptoethanol, 0.002% bromophenol blue) and left stand at room temperature for 1 hour. Then, the reaction mixture was loaded on a spin column (0.45 μm, Millipore) to remove the insoluble solids and a sample buffer for SDS polyacrylamide gel electrophoresis (25 mM, Tris-HCl pH 6.8, 2.5% 2-mercaptoethanol, 2% sodium dodecylsulfate, 5% sucrose, 0.002% bromophenol blue as final concentrations) was added, and 10 μl of each sample was subjected to electrophoresis. […] J. Physiol., 274, […]-[…] (1998)), which specifically recognize the phosphorylated myosin regulatory light chain, and donkey anti-mouse IgG (Chemicon) conjugated with horseradish peroxidase (HRP-labeled). The band of the phosphorylated myosin regulatory light chain was detected on a film by using ECL Plus Kit (Amersham Pharmacia Biotech). This band was subjected to quantification using a densitometer. By using this value, the inhibitory ratio (%) for phosphorylation of the myosin regulatory light chain was calculated by using the following equation.

Assay [2] concerns ovalbumin-immunized guinea pigs. In words: Respiratory tract constriction suppression action, ovalbumin-induced (Test Example 3). The conditions noted are these: result in words; test medicament given into hind leg vein after induction with 0.3 mg/kg ovalbumin, measured for 15 minutes. It counts as in vivo, Hartley guinea pigs. On the procedure: Four-week old Hartley guinea pigs (male) were immunized by intraperitoneal administration of ovalbumin (Sigma, Grade V) in amounts of 1 mg for each animal on the day on which the experiment was started, 3 mg for each animal after 2 days, and 10 mg for each animal after 4 days. Twelve to fourteen days after the final immunization, the ovalbumin-immunized guinea pigs were anesthetized by intraperitoneal administration of about 40 mg/kg of pentobarbital (Somnopentyl), and the tracheas were taken out. Subsequently, a cannula (SP-110, Natsume) was inserted into each trachea, and one end of the cannula was connected to an artificial respirator (Model-b83, Harvard). The aeration conditions were set at 6 ml per kilogram and 60 times per 1 minute. Further, a cannula for medicament administration (JMS wing needle 23G 3/4) was inserted into a hind leg vein. Myoblock (Organon Technica) was administered in an amount of 0.5 mg/kg from the cannula inserted into the hind leg vein to stop the spontaneous breathing, and after 2 or 3 minutes, 0.3 mg/kg of ovalbumin was administered to induce constriction of respiratory tract. The increase of airway resistance value 2 minutes after the induction (measurement apparatuses: pressure transducer TR-603T, respiratory amplifier AR-601G, and recorder RTA-3100, Nihon Kohden Corp.) was confirmed to be above 80 cm H2O or higher, and then, a solution of a test medicament was administered from the cannula inserted into the hind leg vein, and the airway resistance value was continuously measured for 15 minutes after the administration to determine the effect.

In another assay the test system is Neutrophils. In words: Neutrophil migration inhibitory action, Boyden Chamber, FMLP (Test Example 5). It counts as cell-based, human. The settings on record: Homo sapiens, Neutrophil, 0.5 h, FMLP (1 µM), migration at 37°C for 30 minutes; read-out: Neutrophil migration inhibition IC50. On the procedure:
Neutrophils were isolated from 50 to 100 ml of peripheral blood collected from healthy donors by the method described in Test Example 1 to obtain a cell suspension (8 x 10^6/ml). Subsequently, solutions of a test compound at various concentrations were introduced into wells of a 96-well plate in a volume of 125 µl per well, the cell suspension of an equivalent volume was added to it and the plate was preincubated at room temperature for 5 minutes. During the preincubation, FMLP (1 µM, Sigma) solution was added to the lower chamber to set Boyden Chamber, the preincubated cell suspension was added to the upper chamber in a volume of 200 µl per well, and the cells were allowed to migrate at 37°C under 5% carbon dioxide for 30 minutes. The filter after the migration was collected, and the non-migrated cells adhered to the surface that faced the upper chamber were carefully wiped off. Then, the migrated cells on the back surface were stained with DifQuick dye solution (International Reagents), washed with water and dried, and then absorbance was measured at 595 nm. The inhibition ratio against migration (%) of a test compound was calculated by using the following equation: Migration inhibition ratio (%) = (1 -Absorbance of the group with addition of test compound /Absorbance of the group without addition of test compound) x 100 [formula]

For another assay, the system named is Japanese white rabbit. Briefly: Intraocular pressure reducing action (Test Example 4). It counts as in vivo. The conditions noted are these: for intraocular pressure reducing activity: result in words. On the procedure:
A Japanese white rabbit having a body weight of about 2 kg was placed in a positioner and naturalized for one week before the experiment. An ophthalmologic local […] (Benoxil) was administered to the left eye, and then intraocular pressure was measured by using a tonometer (Classic 30, Solan). The initial value of the intraocular pressure was measured, then 50 μl of a test compound (1% aqueous solution) was dropped to the left eye, and after 2 hours, the intraocular pressure was measured. The intraocular pressure reducing action of the test compounds is shown in Table 7 mentioned below as ratios (%) of reduction of intraocular pressure based on the initial value of the intraocular pressure.

A further assay concerns thoracic aorta. Briefly: Vasoconstriction inhibitory action on aorta rings constricted with phenylephrine (Test Example 2). On the set-up: species or system Rats (Wistar, 11-week old). The conditions noted are these: result in words; aorta constricted with phenylephrine (1 µM). The source says:
Rats (Wistar, 11-week old) were bleeded to death and laparotomized to take out the thoracic aorta.

[3] abbreviates: Homo sapiens, Neutrophil, 5 min.

Counter-ions that a name gives are not always drawn. Like-named read-outs stand apart in the source and are kept apart here.

As to `Cl.Nc1nccc2c(OCC3CCCNC3)cccc12` (stereo not drawn) [Example 11, 3-[(1-Amino-5-isoquinolyl)oxy]methylpiperidine hydrochloride], the IC50 in assay [1] (setting [3]) lay within 1 to 20 µM; in the assay on Neutrophils it was 1 to 10 µM. For the same compound, in assay [2], the “constriction of respiratory tract (airway resistance value)” value (shortened to “constriction of respiratory tract”) is “significantly improved the constriction of respiratory tract”.

On to `Brc1cncc2cccc(NC3CCNCC3)c12` [Example 103, 4-(4-Bromo-5-isoquinolyl)aminopiperidine hydrochloride], for which the IC50 in assay [1] (setting [3]) is at most 40 µM; in assay [1] (hydrochloride), at most 20 µM; in the assay with Neutrophils, 1 to 10 µM. In the assay with Japanese white rabbit (Oryctolagus cuniculus, topical, 50 µl of test compound (1% aqueous solution) dropped to the left eye, after 2 hours, read-out: Intraocular pressure reducing action (reduction ratio) (%)), the inhibition in vivo at 1 % was 31.3%.

Regarding `Cl.NC1CCC(Nc2cccc3cncc(Br)c23)CC1` (stereo not drawn) [Example 107, N-(4-Bromo-5-isoquinolyl)-1,4-cyclohexanediamine hydrochloride], the values for the IC50 in assay [1] (setting [3]) and in assay [1] (hydrochloride) were at most 40 µM and at most 20 µM, respectively. Also, the “intraocular pressure reducing activity” value in the assay on Japanese white rabbit is “significant intraocular pressure reducing activity”.

Take `CCc1cncc2cccc(NC3CCNCC3)c12.Cl` [Example 113, 4-(4-Ethyl-5-isoquinolyl)aminopiperidine hydrochloride]: the results for the IC50 (in assay [1] (setting [3]); in assay [1] (hydrochloride); in the assay on Neutrophils) were at most 40 µM, at most 20 µM and at most 40 µM, respectively. Also, the vasoconstriction inhibitory action entry in the assay on thoracic aorta is “significant vasoconstriction inhibitory action”. Also, the “intraocular pressure reducing activity” value in the assay on Japanese white rabbit is “significant intraocular pressure reducing activity”.

`Cl.Oc1nccc2c(NC3CCNCC3)cccc12` [Example 115, 4-(1-Hydroxy-5-isoquinolyl)aminopiperidine hydrochloride]: the “intraocular pressure reducing activity” value in the assay on Japanese white rabbit is reported as “significant intraocular pressure reducing activity”.

Consider `Cl.Clc1cncc2cccc(NC3CCNCC3)c12` [Example 118, 4-(4-Chloro-5-isoquinolyl)aminopiperidine hydrochloride], for which the IC50 in assay [1] (setting [3]) was at most 40 µM; in assay [1] (hydrochloride), at most 20 µM. For the same compound, the “constriction of respiratory tract” value in assay [2] is reported as “significantly improved the constriction of respiratory tract”.

As to `Cc1cncc2cccc(N[C@H]3CC[C@@H](N)CC3)c12.Cl` [Example 120, Cis-N-(4-methyl-5-isoquinolyl)-1,4-cyclohexanediamine hydrochloride], the IC50 was at most 40 µM in assay [1] (setting [3]) and at most 20 µM in assay [1] (hydrochloride). Further, the vasoconstriction inhibitory action entry in the assay with thoracic aorta was “significant vasoconstriction inhibitory action”. Also, the “intraocular pressure reducing activity” value with Japanese white rabbit is “significant intraocular pressure reducing activity”.

On to `Cc1cncc2cccc(N[C@H]3CC[C@H](N)CC3)c12.Cl` [Example 121, Trans-N-(4-methyl-5-isoquinolyl)-1,4-cyclohexanediamine hydrochloride], for which the results for the IC50 (in assay [1] (setting [3]); in assay [1] (hydrochloride); in the assay with Neutrophils) were at most 40 µM, at most 20 µM and 1 to 10 µM, respectively. The “constriction of respiratory tract” value in assay [2] is recorded as “significantly improved the constriction of respiratory tract”. For the same compound, in the assay with thoracic aorta, the vasoconstriction inhibitory action entry is “significant vasoconstriction inhibitory action”.

As to `CS(=O)(=O)c1ccc(CCCN(CCCN)S(=O)(=O)c2cccc3cnccc23)cc1.Cl` [Example 124, N-[(5-Isoquinolyl)sulfonyl]-N-[3-(4-methanesulfonyl)phenylpropyl]-1,3-propylenediamine hydrochloride], the IC50 in assay [1] (hydrochloride) was at most 20 µM. The “Intraocular pressure reducing action (reduction ratio) (%)” value in the assay with Japanese white rabbit (50 µl of test compound (1% aqueous solution) dropped to the left eye, after 2 hours) worked out at 12.5%.

Turning to `Cl.N[C@H]1CC[C@H](Oc2cccc3cncc(Br)c23)CC1` [Example 133, Trans-4-[(4-bromo-5-isoquinolyl)oxy]cyclohexylamine hydrochloride], the IC50 in assay [1] (setting [3]) is at most 40 µM; in assay [1] (hydrochloride), at most 20 µM. The “constriction of respiratory tract” value in assay [2] is reported as “significantly improved the constriction of respiratory tract”. In the assay on Japanese white rabbit, the “intraocular pressure reducing activity” value is given as “significant intraocular pressure reducing activity”.

For `Cl.N#Cc1cncc2cccc(O[C@H]3CC[C@H](N)CC3)c12` [Example 134, Trans-4-[(4-cyano-5-isoquinolyl)oxy]cyclohexylamine hydrochloride], the results for the IC50 in assay [1] (setting [3]) and in assay [1] (hydrochloride) were at most 40 µM and at most 20 µM, respectively. In addition, the vasoconstriction inhibitory action entry with thoracic aorta is reported as “significant vasoconstriction inhibitory action”. The “intraocular pressure reducing activity” value in the assay on Japanese white rabbit is recorded as “significant intraocular pressure reducing activity”.

Regarding `Cl.N[C@H]1CC[C@H](Oc2cccc3cnccc23)CC1` [Example 135, Trans-4-[(5-isoquinolyl)oxy]cyclohexylamine hydrochloride], the IC50 in assay [1] (setting [3]) is at most 40 µM; in assay [1] (hydrochloride), at most 20 µM. Besides, in the assay with Japanese white rabbit, the “intraocular pressure reducing activity” value is given as “significant intraocular pressure reducing activity”.

As to `C=Cc1cncc2cccc(O[C@H]3CC[C@H](N)CC3)c12.Cl` [Example 136, Trans-4-[(4-vinyl-5-isoquinolyl)oxy]cyclohexylamine hydrochloride], the IC50 in assay [1] (setting [3]) is at most 40 µM; in assay [1] (hydrochloride), at most 20 µM; with Neutrophils, at most 40 µM. Moreover, in the assay on thoracic aorta, the vasoconstriction inhibitory action entry is “significant vasoconstriction inhibitory action”. The “intraocular pressure reducing activity” value with Japanese white rabbit is “significant intraocular pressure reducing activity”.

As for `Cc1cncc2cccc(OC3CCNCC3)c12.Cl` [Example 139, 4-[(4-Methyl-5-isoquinolyl)oxy]piperidine hydrochloride], the IC50 was at most 40 µM in assay [1] (setting [3]) and at most 20 µM in assay [1] (hydrochloride). Also, the vasoconstriction inhibitory action entry with thoracic aorta is recorded as “significant vasoconstriction inhibitory action”. The “intraocular pressure reducing activity” value in the assay on Japanese white rabbit was “significant intraocular pressure reducing activity”.

With `Cl.OCCCN1CCC(Nc2cccc3cnccc23)CC1` [Example 145, 1-(3-Hydroxypropyl)-4-(5-isoquinolyl)aminopiperidine hydrochloride], the IC50 in assay [1] (setting [3]) is at most 40 µM; in assay [1] (hydrochloride) it was at most 20 µM; in the assay with Neutrophils it was at most 40 µM. For the same compound, the “intraocular pressure reducing activity” value with Japanese white rabbit was “significant intraocular pressure reducing activity”.
